Experimental data reported in US6274715A, “Tricyclic erythromycin derivatives” (priority 1997, dated 2001).

Assays:
Format in all cases: cell-based
[1] = tested on: STAPHYLOCOCCUS AUREUS ATCC 6538P; assay: In vitro antibacterial activity, MIC, BHI agar dilution; settings: S. aureus ATCC 6538P, 35-37° C., 20 to 24 hours, unit assumed
[2] = tested on: STAPHYLOCOCCUS AUREUS A5177; assay: as above; settings: S. aureus A5177, unit assumed
[3] = tested on: STAPHYLOCOCCUS AUREUS A-5278; assay: as above; settings: S. aureus A-5278, unit assumed
[4] = tested on: STAPHYLOCOCCUS AUREUS CMX 642A; assay: as above; settings: S. aureus CMX 642A, unit assumed
[5] = tested on: STAPHYLOCOCCUS AUREUS NCTC10649M; assay: as above; settings: S. aureus NCTC10649M, unit assumed
[6] = tested on: STAPHYLOCOCCUS AUREUS CMX 553; assay: as above; settings: S. aureus CMX 553, unit assumed
[7] = tested on: STAPHYLOCOCCUS AUREUS 1775; assay: as above; settings: S. aureus 1775, unit assumed
[8] = tested on: STAPHYLOCOCCUS EPIDERMIDIS 3519; settings: S. epidermidis 3519; BHI agar; unit assumed
EN[…] ATCC 8043 = assay: In vitro antibacterial activity, MIC, BHI agar dilution; settings: E. faecium ATCC 8043, unit assumed
In short: (§1)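 BHI agar dilution: twelve plates with successive compound dilutions, inoculated by replicator with 1:100 culture dilutions (1:10 for slow growers such as Micrococcus and Streptococcus), 20 to 24 hours at 35-37° C. MIC was the lowest concentration giving no growth, slight haze or sparse isolated colonies versus drug-free control; erythromycin A as class reference.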

M[…] ATCC 4698 = assay: as above; settings: M. luteus ATCC 4698, unit assumed
In short: as §1

M[…] ATCC 9341 = assay: as above; settings: M. luteus ATCC 9341, unit assumed
In short: as §1

STR[…] 508 = assay: as above; settings: S. agalactiae CMX 508, unit assumed
In short: as §1

[9] = tested on: STREPTOCOCCUS BOVIS A-5169; assay: as above; settings: S. bovis A-5169, unit assumed
[10] = tested on: STREPTOCOCCUS PYOGENES EES61; assay: as above; settings: S. pyogenes EES61, unit assumed
[11] = tested on: STREPTOCOCCUS PYOGENES 930; assay: as above; settings: S. pyogenes 930, unit assumed
[12] = tested on: STREPTOCOCCUS PYOGENES PIU 2548; assay: as above; settings: S. pyogenes PIU 2548, unit assumed
ESCHERICHIA COLI JUHL = settings: E. coli JUHL; BHI agar; unit assumed
ESCHERICHIA COLI SS = assay: In vitro antibacterial activity, MIC, BHI agar dilution; settings: E. coli SS, unit assumed
ESCHERICHIA COLI DC-2 = assay: as above; settings: E. coli DC-2, unit assumed
ESCHERICHIA COLI H560 = assay: as above; settings: E. coli H560, unit assumed
ESCHERICHIA COLI KNK 437 = settings: E. coli KNK 437; BHI agar; unit assumed
[13] = tested on: ENTEROBACTER AEROGENES ATCC 13048; assay: In vitro antibacterial activity, MIC, BHI agar dilution; settings: E. aerogenes ATCC 13048, unit assumed
[14] = tested on: KLEBSIELLA PNEUMONIAE ATCC 8045; assay: as above; settings: K. pneumoniae ATCC 8045, unit assumed
[15] = tested on: PROVIDENCIA STUARTII CMX 640; settings: P. stuartii CMX 640; BHI agar; unit assumed
[16] = tested on: PSEUDOMONAS AERUGINOSA BMH10; assay: In vitro antibacterial activity, MIC, BHI agar dilution; settings: P. aeruginosa BMH10, unit assumed
[17] = tested on: PSEUDOMONAS AERUGINOSA 5007; assay: as above; settings: P. aeruginosa 5007, unit assumed
[18] = tested on: PSEUDOMONAS AERUGINOSA K799/WT; assay: as above; settings: P. aeruginosa K799/WT, unit assumed
[19] = tested on: PSEUDOMONAS AERUGINOSA K799/61; assay: as above; settings: P. aeruginosa K799/61, unit assumed
PSEUDOMONAS CEPACIA 296I = assay: as above; settings: P. cepacia 296I, unit assumed
[20] = tested on: PSEUDOMONAS AERUGINOSA DPHD-5263; assay: as above; settings: P. aeruginosa DPHD-5263, unit assumed
[21] = tested on: PSEUDOMONAS AERUGINOSA DPHD-2862; assay: as above; settings: P. aeruginosa DPHD-2862, unit assumed
CANDIDA ALBICANS CCH 442 = assay: as above; settings: C. albicans CCH 442, unit assumed
[22] = tested on: MYCOBACTERIUM SMEGMATIS ATCC 114; assay: as above; settings: M. smegmatis ATCC 114, unit assumed

Measured: MIC

CC[C@H]1OC(=O)[C@H](C)C(=O)[C@H](C)[C@@H](O[C@@H]2O[C@H](C)C[C@H](N(C)C)[C@H]2O)[C@](C)(OC)C[C@@H](C)C2=N[C@@H]3CN(CCc4ccccc4)C[C@@H]3N3C(=O)O[C@@]1(C)[C@H]3[C@H]2C [Example 23]
0.39 µg/mL: [22]
6.2 µg/mL: ESCHERICHIA COLI H560
0.05 µg/mL: EN[…] ATCC 8043 | M[…] ATCC 9341 | ESCHERICHIA COLI SS
0.2 µg/mL: [1] | [2] | [4] | [5] | [6] | M[…] ATCC 4698 | [19]
≤ 0.005 µg/mL: STR[…] 508 | [9] | [10]
0.78 µg/mL: [8] | [12]
100 µg/mL: [13] | [14] | [18] | PSEUDOMONAS CEPACIA 296I
25 µg/mL: ESCHERICHIA COLI KNK 437
50 µg/mL: ESCHERICHIA COLI JUHL
12.5 µg/mL: ESCHERICHIA COLI DC-2
> 100 µg/mL: all other assays above

CC[C@H]1OC(=O)[C@H](C)C(=O)[C@H](C)[C@@H](O[C@@H]2O[C@H](C)C[C@H](N(C)C)[C@H]2O)[C@](C)(OC)C[C@@H](C)C2=NC3CN(C=O)CC3N3C(=O)O[C@@]1(C)[C@H]3[C@H]2C (stereo partly drawn) [Example 124]
0.39 µg/mL: M[…] ATCC 4698
50 µg/mL: ESCHERICHIA COLI H560
0.02 µg/mL: [10]
0.05 µg/mL: [9]
3.1 µg/mL: [8] | [12]
100 µg/mL: ESCHERICHIA COLI JUHL | ESCHERICHIA COLI DC-2 | ESCHERICHIA COLI KNK 437 | [18]
0.1 µg/mL: M[…] ATCC 9341 | STR[…] 508
0.78 µg/mL: [1] | [4] | [5] | [6] | ESCHERICHIA COLI SS | [19]
0.2 µg/mL: EN[…] ATCC 8043
1.56 µg/mL: [2]
25 µg/mL: [22]
> 100 µg/mL: all other assays above

CC[C@H]1OC(=O)[C@H](C)C(=O)[C@H](C)[C@@H](O[C@@H]2O[C@H](C)C[C@H](N(C)C)[C@H]2O)[C@](C)(OC)C[C@@H](C)C2=N[C@H](COCc3ccccc3F)CN3C(=O)O[C@@]1(C)[C@H]3[C@H]2C [Example 102]
3.1 µg/mL: [19]
0.2 µg/mL: [1] | [4] | [8] | [12]
0.01 µg/mL: EN[…] ATCC 8043 | STR[…] 508 | [9] | [10] | [22]
0.02 µg/mL: M[…] ATCC 4698
≤ 0.005 µg/mL: M[…] ATCC 9341
100 µg/mL: ESCHERICHIA COLI JUHL
50 µg/mL: ESCHERICHIA COLI H560 | PSEUDOMONAS CEPACIA 296I
0.1 µg/mL: [2] | [5] | [6]
0.39 µg/mL: ESCHERICHIA COLI SS
> 100 µg/mL: all other assays above
